From patent US12351878B2, “Identification of HER2 mutations in lung cancer and methods of treatment” (THE TRANSLATIONAL GENOMICS RESEARCH INSTITUTE, priority 2018, dated 2025)
“Also recorded” adds a separate entry of the source. Where two headings read alike, the source gives them in different places.

Columns and labels:
HER2 WT cPAC cell lines = assay: 72 hour drug dose-response, CellTiter-Glo cell viability; format: cell-based, canine; conditions: Canis lupus familiaris
Description: (§1) Sample Collection: Tumors and cell lines from 89 dogs from the Canine Comparative Oncology and Genomics Consortium (CCOGC) (11) and The Ohio State University (OSU) College of Veterinary Medicine Biospecimen Repository were included. Board-certified veterinary pathologists confirmed tumor diagnosis based on histopathology. Tumor and normal tissue samples were flash frozen in liquid nitrogen or formalin-fixed and paraffin-embedded (FFPE). Cell lines were maintained in RPMI 1640 with GlutaMAX™ (Gibco™, Thermo Fisher Scientific, #61870036) supplemented with 10% heat-inactivated fetal bovine serum at 37° C. and 5% CO2 and passaged at 90% confluence. Cell lines with known passage data (except BACA) were sequenced within the first eight passages of derivation and subsequently expanded for phenotypic studies, and were authenticated by IDEXX BioResearch (Columbia, MO) using the Cell Check Canine STR Profile and Interspecies Contamination Test or by NkX2 (or TTF-1) RT-PCR. Human cell lines included BT474 (ATCC #HTB20, HER2 focal amplification) and H1781 (ATCC #CRL-5894, HER2 […]). Blood for cell-free DNA (cfDNA) and germline DNA extraction was collected in 10 ml K2 EDTA Blood tubes (Thermo Fisher Scientific #22-253-145). Plasma separation was performed at room temperature within 1 hour (2× serial centrifugation at 2000 rpm×15 minutes). Plasma aliquots were stored frozen at −80° C. DNA extraction from plasma, white blood cells and tissue was performed with MagMAX Cell-Free DNA Isolation Kit (Thermo Fisher Scientific #A29319), DNeasy Blood and Tissue Kit (QIAGEN #69504) and Qiagen AllPrep DNA/RNA Mini Kit (QIAGEN #80204), respectively.
(§2) Cells were cultured in RPMI supplemented with 10% FBS and 1% Penicillin/Streptomycin. Luminescence was read using Synergy Mx (Biotek) plate reader. Six replicates were performed for each dose. Curve-fitting and IC50 calculations were performed using GraphPad Prism v7.00 (GraphPad Software).
(§3) We first assessed differential sensitivity of HER2 V659E and HER2 WT canine lung cancer cell lines to lapatinib (HER2 and EGFR inhibitor) and neratinib (HER2, HER4, and EGFR inhibitor). Five cPAC cell lines (two HER2 V659E and three HER2 WT) were treated with neratinib and four (one HER2 V659E and three HER2 WT) with lapatinib for 72 hours. Two HER2-mutant human cancer cell lines-BT474 (HER2 AMP) and H1781 (kinase domain HER2 G776ins)—were treated as positive drug controls (18, 21) (FIGS. 2B and 6). […] Given that HER2 receptors dimerize with EGFR, we then evaluated differential sensitivity of the five canine cell lines and the human BT474 control line to the EGFR inhibitor, erlotinib.

[1] = test system: HER2 V659E cPAC cell lines; assay: as above; format: cell-based, canine; conditions: for IC50: Canis lupus familiaris; for sensitivity of HER2 V659E lines relative to HER2 wild-type cell lines: in vitro viability
Description: as §1, §2, §3

p-AKT in BT474 (HER2amp) = assay: Western blot of phospho-AKT and AKT under serum starvation; format: cell-based, human; conditions: 5 doses 20-2000 nmol/L
Procedure: […]
(§4) Immunoblot Analyses: Subconfluent cells were serum starved overnight, then treated with 20 nM neuregulin for 15 min prior to harvest. […] Membranes were blocked for 1 hour in LiCor blocking buffer and incubated with primary antibody at 4° C., overnight, followed by fluorescence-conjugated secondary antibodies. […]

[2] = test system: HER2-mutant cell lines (HER2 V659E cPAC lines, BT474, H1781); assay: 72 hour drug dose-response, CellTiter-Glo cell viability; format: cell-based, canine and human; conditions: all HER2-mutant cell lines
Description: Sample Collection: Tumors and cell lines from 89 dogs from the Canine Comparative Oncology and Genomics Consortium (CCOGC) (11) and The Ohio State University (OSU) College of Veterinary Medicine Biospecimen Repository were included. Board-certified veterinary pathologists confirmed tumor diagnosis based on histopathology. Tumor and normal tissue samples were flash frozen in liquid nitrogen or formalin-fixed and paraffin-embedded (FFPE). Cell lines were maintained in RPMI 1640 with GlutaMAX™ (Gibco™, Thermo Fisher Scientific, #61870036) supplemented with 10% heat-inactivated fetal bovine serum at 37° C. and 5% CO2 and passaged at 90% confluence. […]
Cells were cultured in RPMI supplemented with 10% FBS and 1% Penicillin/Streptomycin. Luminescence was read using Synergy Mx (Biotek) plate reader. […]
We first assessed differential sensitivity of HER2 V659E and HER2 WT canine lung cancer cell lines to lapatinib (HER2 and EGFR inhibitor) and neratinib (HER2, HER4, and EGFR inhibitor). […] Given that HER2 receptors dimerize with EGFR, we then evaluated differential sensitivity of the five canine cell lines and the human BT474 control line to the EGFR inhibitor, erlotinib.

[3] = test system: p-AKT in OSUK9PAPADO (HER2 WT); assay: Western blot of phospho-AKT and AKT under serum starvation; format: cell-based, canine; conditions: 5 doses 20-2000 nmol/L
Procedure: […]
as §4

[4] = test system: p-AKT in OSUK9PAPADRi (HER2 V659E); assay: as above; format: cell-based, canine; conditions: 5 doses 20-2000 nmol/L
Procedure: […]
as §4

[5] = 72 h, read-out: IC50, viability

## C#Cc1cccc(Nc2ncnc3cc(OCCOC)c(OCCOC)cc23)c1 [erlotinib]
HER2 WT cPAC cell lines; [5]
  IC50: 1100 to 15400 nM
[1]; 72 h, read-out: IC50, viability, one of the two HER2 V659E lines, 72 hours
  IC50: 220 nM
[1]; 72 h, read-out: IC50, viability, other of the two HER2 V659E lines, 72 hours
  IC50: 1170 nM
[1]; two HER2-mutant cell lines
  sensitivity of HER2-mutant canine cell lines: One of two HER2-mutant cell lines showed erlotinib sensitivity

## CS(=O)(=O)CCNCc1ccc(-c2ccc3ncnc(Nc4ccc(OCc5cccc(F)c5)c(Cl)c4)c3c2)o1 [lapatinib]
HER2 WT cPAC cell lines; HER2 WT cPAC cell lines, 72 hours, both TKIs, read-out: IC50, viability
  IC50: > 2500 nM
[1]; HER2 V659E cPAC cell lines, 72 hours, both TKIs, read-out: IC50, viability
  IC50: < 200 nM
[1]
  sensitivity of HER2 V659E lines relative to HER2 wild-type cell lines: selectively sensitive; also recorded: hypersensitivity

## CCOc1cc2ncc(C#N)c(Nc3ccc(OCc4ccccn4)c(Cl)c3)c2cc1NC(=O)/C=C/CN(C)C [neratinib]
HER2 WT cPAC cell lines; 72 h, read-out: IC50, viability, HER2 WT cPAC cell lines, 72 hours, both TKIs
  IC50: > 2500 nM
HER2 WT cPAC cell lines; 72 h, read-out: IC50, viability, HER2WT cells, 72 hours, p=0.0079 vs HER2-mutant
  IC50: > 2700 nM
[1]; [5]
  IC50: < 200 nM
[1]
  sensitivity of HER2 V659E lines relative to HER2 wild-type cell lines: selectively sensitive; also recorded: hypersensitivity
p-AKT in BT474 (HER2amp)
  p-AKT level by Western blot: dose-dependent decrease in p-AKT
[2]
  IC50: < 50 nM
[3]
  p-AKT level by Western blot: low at all treatment levels
[4]
  p-AKT level by Western blot: dose-dependent decrease in p-AKT
